# Reference: patent US20240358681A1, “METHODS OF USE OF PPAR AGONIST COMPOUNDS AND PHARMACEUTICAL COMPOSITIONS THEREOF” (Mitobridge, Inc., priority 2021, published 2024)
# Legend:
# [1] = tested on: PPARδ target genes and FAO genes in quadriceps muscle; experiment: Gene expression analysis of quadriceps muscle in aged DIO mice; type: in vivo, mouse; conditions: 30 mg/kg oral once daily, 5 weeks
# Procedure: All animal studies were performed in accordance with Charles River Laboratories animal welfare protocols. Male Diet-Induced Obese (DIO) C57BL/6NTac mice 28 weeks of age were fed a high fat diet. 20 mice were randomized based on bodyweight into two cohorts of 10 mice each. Five mice were assigned to each treatment group in each cohort (i) vehicle or (ii) Compound (I) at 30 mg/kg via (n=10 total animals per treatment). […] Mice were acclimatized to the treadmill room for one hour on days of training or endurance runs. After an initial 5 min exploration period the treadmill belt moved at 5 m/min for 10 min with the motivation grid intensity set to 0.46 mA. Mice required a few visits to the grid to learn to walk/run on the moving belt and avoid the electric grid shock. After two acclimatization periods the mice learned to avoid the electric grid and stay on the moving belt, with fewer visits to the electric grid. The maximum speed for the endurance run was capped at 16.5 m/min based on speed acclimation runs, which represents the speed at which 25% of animals are running in the top ⅔ of the treadmill at a 5° slope. The mice were considered exhausted if they stayed on the electric grid with no limbs on the treadmill belt for 10 seconds.
# Before and after the exhaustion run, blood samples were obtained via a tail vein nick. At the end of the study (day 45) whole blood along with gastrocnemius and quadriceps skeletal muscles were collected following CO2 euthanasia.
# PPARδ = target: T1, PPARδ (Mus musculus, UniProt P35396); experiment: Mouse EC50 (PPARδ agonist)
# T1 sequence (P35396 1-440): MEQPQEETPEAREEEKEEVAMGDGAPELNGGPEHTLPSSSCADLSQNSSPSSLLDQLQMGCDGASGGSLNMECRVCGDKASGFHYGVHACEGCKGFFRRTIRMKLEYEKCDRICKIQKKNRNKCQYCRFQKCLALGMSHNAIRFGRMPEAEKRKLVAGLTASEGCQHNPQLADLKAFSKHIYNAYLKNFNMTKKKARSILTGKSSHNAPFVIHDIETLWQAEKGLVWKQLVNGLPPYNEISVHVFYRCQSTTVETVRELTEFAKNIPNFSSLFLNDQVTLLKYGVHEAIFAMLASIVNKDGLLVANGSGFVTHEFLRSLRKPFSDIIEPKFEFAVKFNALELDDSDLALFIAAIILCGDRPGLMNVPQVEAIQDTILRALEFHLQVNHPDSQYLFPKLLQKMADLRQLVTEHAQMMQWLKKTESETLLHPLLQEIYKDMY
smiles,measurement,setting,value
"Cc1cnc(-c2ccc(C(F)(F)F)cc2)n1Cc1ccccc1OCCC[C@@H](C)CC(=O)O [Compound (I), (R)-3-Methyl-6-(2-((5-methyl-2-(4-(trifluoromethyl)phenyl)-1H-imidazol-1-yl)methyl)-phenoxy)hexanoic acid]",Angptl4 expression increase in quadriceps muscle,[1]; FIG. 5A,3.5 fold
same,Pdk4 expression increase in quadriceps muscle,[1]; FIG. 5B,2.5 fold
same,Acadvl expression (FAO gene),[1]; FIG. 5C-5E,significantly increased
same,Cpt1a expression (FAO gene),[1]; FIG. 5C-5E,significantly increased
same,Slc25a20 expression (FAO gene),[1]; FIG. 5C-5E,significantly increased
same,EC50,PPARδ,14 nM
